Patent US11220527B2, “Peptides derived from the propeptide NTSR3 and their use in the treatment of depression” (CENTRE NATIONAL DE LA RECHERCHE SCIENTIFIQUE, priority 2016, dated 2022)
“Also recorded” adds a separate entry of the source. Where a SMILES comes first, the peptide text is derived from it. The star is where a group is joined. Biotin = O=C1N[C@H]2[C@H](CS[C@H]2CCCCC(=O)*)N1

Legend:
[1] = test system: BrdU-positive cells of the dentate gyrus of the hippocampus; assay: Hippocampal neurogenesis by BrdU immunohistochemistry; format: in vivo; conditions: mice, four days of treatment, FIG. 5
Experimental: BrdU (5-bromo-2′-deoxyuridine) is a synthetic nucleoside analogous to thymidine. It is incorporated during DNA replication during phase S (chromosome duplication during interphase) of the cells in division. Injection of BrdU makes it possible to visualize the cells in division of the tissue to be analyzed by means of immunological labeling. In the present study, the hippocampal neurogenesis of the mice was evaluated after treatment with spadin or the different analogs.
After the behavioral tests, the mice were injected with BrdU at a final concentration of 120 mg/kg intraperitoneally, according to the modified protocol of Beauquis, J. et al. (Eur J Neurosci 23, 1539-1546, 2007). Four injections of 300 μl at 10 mg/ml, spaced two hours apart, were performed. 24 hours after the injections, the mice were anesthetized with pentobarbital (100 mg/kg) and then perfused intracardially. During the intracardiac perfusion, physiological saline was administered to remove all blood from the body of the mice, and then 4% paraformaldehyde (PFA) was perfused to fix the organs. Post-fixation in 4% PFA was also performed overnight. The brains of the mice were cut with a vibratome (Leica), which allowed 40 μm floating frontal sections to be obtained. The sections selected for the immunological reaction were those ranging from bregma 3.3 to 5.3. Eight sections were selected with a regular spacing, allowing the entire hippocampus to be covered while remaining homogeneous from one brain to another.
The immunological reaction was performed by incubating an anti-BrdU primary antibody (BD Pharmingen, 1/8000), with the brain sections, overnight at 4° C. The brain sections were then washed in PBS (Phosphate Buffered Saline) and incubated for two hours with the secondary antibody (biotinylated goat anti-mouse antibody, Vector laboratories, 1/400). […]
The sections were then mounted on slides and fixed with Entellan. BrdU-positive cells of the dentate gyrus of the hippocampus were counted in both hemispheres of each brain. […]

[2] = Learned helplessness test (LHT); format: in vivo; conditions: mice, bolus of 100 μL of a 10^-6 M solution 30 minutes before conditioning, FIG. 4
Experimental: Learned resignation or learned helplessness is a model based on the repeated administration of electric shocks to induce a resigned state in the animal.
The apparatus comprises two compartments separated by a sliding door and with a floor consisting of a metal grid through which the electrical pulses are administered. The learned helplessness protocol is divided into two stages, an animal conditioning stage and a test stage.
The conditioning was carried out over a period of four days during which time the mice received 360 non-avoidable electric shocks of 0.3 mA for one hour (the door, separating the two compartments, being closed). The shocks lasted for 2 seconds and an interval of 8 seconds was respected between each shock. This conditioning step leads to a phenomenon of helplessness in animals.
On the day of the test, the mice were placed in the same compartments but with a possibility of escaping the shock. The test counted 30 trials. During the administration of the shock, the door separating the two compartments opened, allowing the animals to flee. When the animal changes compartment the test is finished and the shock stops. […] This test made it possible to record the escape latencies of the animals. The thirty tests were then grouped by 5 and the average escape time was calculated. […]

PSD-95 protein = assay: Synaptogenesis: PSD-95 expression in cortical neurons by Western blot; format: cell-based, mouse C57BI/6J; conditions: 1 μM, 0-36 hours, normalized to ß-actin, FIG. 6
Experimental: Pregnant female C57BI/6J mice (20-25 g, Janvier Labs, St Berthevin, France) were anesthetized by inhalation of 2% isoflurane mixed with 30% oxygen and 70% nitrous oxide, and then sacrificed. The embryos (E14) were removed and the cerebral cortex was dissected in PBS containing 1% glucose. Neurons were prepared from cerebral cortex by mechanical dissociation, as described in Brewer and Torricelli, 2007 [26]. The dissociated neurons were distributed in poly-L-lysine treated plates and cultured for up to 10 days in neurobasal medium containing 2% B27 (Invitrogen, Fisher Scientific, Illkirch, France) and 50 μg/ml gentamycin (Sigma France), at 37° C. under 5% CO2. […]
Cortical neurons treated with peptides G/A-PE(22-28) and biotinylated G/A-PE(22-28) for different durations (0, 5, 8, 24 and 36 hours) were homogenized in Laemmli buffer and analyzed using 10% SDS-Page gels. […] The ß-actin contents were determined after extraction using a 1/5000 dilution of anti-β-actin antibodies (Santa Cruz mouse monoclonal antibody, dilution 1/5000). […] The proteins were detected with ECL Plus detection reagents (Amersham Biosciences) using the LAS-3000 imaging system (Fujifilm, Düsseldorf, Germany). The relative intensities of each labeled band were analyzed by densitometric scanning using ImageJ software (Wayne Rasband, National Institute of Health, Bethesda, Md., USA). […]

LNCaP cells = assay: Growth of LNCaP cells by counting the cells in culture; format: cell-based; conditions: cell count after 24 or 48 h, FIG. 7C
[3] = biological target: T1, TREK-1 channels expressed on the LNCaP cells (Homo sapiens, UniProt O95069); assay: Whole-cell patch clamp, I=f(V), on LNCaP cells activated with arachidonic acid; format: cell-based; conditions: previously activated with arachidonic acid, FIG. 7B
T1 construct: TREK-1 channels are also present on the surface of cancer cells such as LNCaP cells (prostate cancer); endogenous in cells; host or cells: LNCaP cells
T1 sequence (O95069 1-426): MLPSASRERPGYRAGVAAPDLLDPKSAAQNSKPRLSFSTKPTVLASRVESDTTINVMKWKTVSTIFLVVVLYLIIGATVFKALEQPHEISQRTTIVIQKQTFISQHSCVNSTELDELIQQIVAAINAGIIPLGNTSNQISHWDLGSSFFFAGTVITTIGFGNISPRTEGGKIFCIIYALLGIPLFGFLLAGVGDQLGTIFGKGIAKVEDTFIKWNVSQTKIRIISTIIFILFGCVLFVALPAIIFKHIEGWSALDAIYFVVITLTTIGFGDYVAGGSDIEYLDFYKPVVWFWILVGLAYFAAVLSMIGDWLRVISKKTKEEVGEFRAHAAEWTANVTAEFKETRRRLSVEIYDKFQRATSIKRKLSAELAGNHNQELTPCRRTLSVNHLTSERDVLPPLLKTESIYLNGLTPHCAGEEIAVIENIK
Experimental: (§1) All experiments measuring the effect of spadin analogs and spadin were performed on ßTC3 or LNCaP or HEK293 cells stably transfected with the TREK-1 channel, hTREK-1/HEK293. The hTREK-1/HEK293 cell line was prepared in the laboratory. These cells also express a reporter gene: E-Green Fluorescent Protein (EGFP) enabling their visualization.
The LNCaP cells were cultured in DMEM medium (Gibco)/10% fetal calf serum (FCS, ICN)/1% streptomycin+penicillin mixture (Gibco)/1% glutamax (Gibco)/at 37° C. in the presence of 5% CO2. At day 1, the hTREK-1/HEK293 or BTC3 or LNCaP cells were seeded at 20,000 cells per 35 mm diameter dish containing 2 ml of culture medium. From day 2 to day 4, the cells were measured by electrophysiological methods.
(§2) All measurements were made at room temperature, i.e. at 21-22° C. The hTREK-1/HEK293 cells were identified by the fluorescence emitted by EGFP after excitation at 480 nm. […]
The cell culture medium was replaced with a solution 150 mM NaCl, 5 mM KCl, 3 mM MgCl2, 1 mM CaCl2, 10 mM HEPES/NaOH pH 7.4 containing 10 mM tetraethylammonium chloride, 3 mM 4-aminopyridine. […] The resting potential of the membrane of the measured cell was set at −80 mV.
The voltage variations were obtained either by continuous ramp (from −100 to +60 mV) or by a potential jump of 10 mV (from −100 to +60 mV, 1.5 seconds per jump). The data obtained were analyzed with the Pclamp software. […]

[4] = biological target: T2, TREK-1 channels expressed on the ßTC3 cells (Mus musculus, UniProt P97438); assay: Whole-cell patch clamp, I=f(V), on ßTC3 cells activated with arachidonic acid; format: cell-based; conditions: previously activated with arachidonic acid, FIG. 7A
T2 construct: TREK-1 channels are present on the surface of beta-pancreatic cells such as beta-TC3 cells; endogenous in cells; host or cells: ßTC3 cells
T2 sequence (P97438 1-426): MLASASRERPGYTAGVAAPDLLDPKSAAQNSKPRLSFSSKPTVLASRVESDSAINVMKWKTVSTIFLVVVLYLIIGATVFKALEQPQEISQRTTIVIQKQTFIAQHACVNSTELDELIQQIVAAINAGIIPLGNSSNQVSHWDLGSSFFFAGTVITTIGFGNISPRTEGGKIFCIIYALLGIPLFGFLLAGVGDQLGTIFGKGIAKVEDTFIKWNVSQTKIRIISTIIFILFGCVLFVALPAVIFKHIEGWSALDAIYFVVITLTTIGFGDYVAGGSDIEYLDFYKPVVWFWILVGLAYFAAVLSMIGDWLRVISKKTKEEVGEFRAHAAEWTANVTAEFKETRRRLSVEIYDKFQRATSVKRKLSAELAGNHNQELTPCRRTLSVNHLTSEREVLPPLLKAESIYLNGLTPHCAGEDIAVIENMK
Experimental: as §1
The ßTC3 cells were cultured in RPMI 1640 medium supplemented with 2.5% FCS, 50 μM beta-mercaptoethanol, 10 mM HEPES, 1 mM sodium pyruvate, 50 μg/ml gentamycin and 1% of a streptomycin+penicillin mixture, at 37° C. in the presence of 5% CO2.
The LNCaP cells were cultured in DMEM medium (Gibco)/10% fetal calf serum (FCS, ICN)/1% streptomycin+penicillin mixture (Gibco)/1% glutamax (Gibco)/at 37° C. in the presence of 5% CO2. […] From day 2 to day 4, the cells were measured by electrophysiological methods.
as §2
The cell culture medium was replaced with a solution 150 mM NaCl, 5 mM KCl, 3 mM MgCl2, 1 mM CaCl2, 10 mM HEPES/NaOH pH 7.4 containing 10 mM tetraethylammonium chloride, 3 mM 4-aminopyridine. […] The resting potential of the membrane of the measured cell was set at −80 mV. […]

TREK-1 channel = biological target: T3, TREK-1 channel (Homo sapiens, UniProt O95069); conditions: previously shown; cited from earlier work
T3 sequence (O95069 1-426): T1 sequence (O95069 1-426)

CC(C)C[C@H](NC(=O)CNC(=O)[C@H](Cc1c[nH]c2ccccc12)NC(=O)[C@H](CO)NC(=O)[C@@H](NC(=O)[C@H](C)NC(=O)CCCC[C@@H]1SC[C@@H]2NC(=O)N[C@@H]21)C(C)C)C(=O)N[C@@H](CCCNC(=N)N)C(=O)O [biotinylated G/A-PE(22-28)] (Biotin-AVSWGLR-OH; N-terminus and C-terminus assumed)
neurogenesis (BrdU-positive cells of the hippocampus) [1]: increase neurogenesis more strongly than peptide PE(22-28); also recorded: capable of inducing an increase in neurogenesis
escape latencies in the learned helplessness test [2]: capable of reducing the escape latencies
PSD-95 synaptic protein expression (synaptogenesis) (PSD-95 protein): increased PSD-95 synaptic protein expression

GVSWGLR (Peptide PE(22-28)) [base peptide derived from the propeptide, used for design of other peptides]
growth of LNCaP cells (LNCaP cells): inhibits their growth; also recorded: capable of inhibiting the cell growth
blocking of arachidonic acid (aa) activated TREK-1 / potassium currents on LNCaP cells [3]: blocks arachidonic acid (aa) sensitive potassium currents; also recorded: capable of blocking the TREK-1 channels
blocking of arachidonic acid (aa) activated TREK-1 / potassium currents on ßTC3 cells [4]: blocks arachidonic acid (aa) sensitive potassium currents

QDRLDAPPPPAAPLPRWSGPIGVSWGLRAAAAGGAFPRGGRWRR (Propeptide PE)
blocking of TREK-1 channel activity (TREK-1 channel): able to block the activity of the TREK-1 channel
